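How tested: cells in 96-well plates exposed to compound for 48 hours at five concentrations. Abbreviation: GI50, concentration required for 50% inhibition of growth.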 Calls of active or inactive are those of the source. Cut-off read from the data, not from the text of the source: active = GI50 up to about 1.1 µM and inactive = higher.
Columns and labels:
Assay in all cases: DTP human tumour cell line panel, 48 h
[1] = system: MDA-N
[2] = system: SN12C
[3] = system: UACC-62
[4] = system: HCC 2998
[5] = system: SR
[6] = system: 786-0
[7] = system: EKVX
[8] = system: SF-539
[9] = system: T47D
[10] = system: OVCAR-4
[11] = system: M14
[12] = system: HCT-15
[13] = system: LOX IMVI
[14] = system: SK-MEL-2
[15] = system: Hs-578T
[16] = system: SK-MEL-28
[17] = system: HL-60
[18] = system: ACHN
[19] = system: SK-OV-3

Measured: GI50

Cc1cccc2c(=O)c3cccc(CC(=O)O)c3oc12
inactive: [1] > 100 µM | [2] > 100 µM | [3] > 100 µM | [4] > 100 µM | [5] > 100 µM | [6] > 100 µM | [7] > 100 µM | [8] > 100 µM | [9] > 100 µM | [10] > 100 µM | [11] > 100 µM | [13] > 100 µM | [14] > 100 µM | [15] > 100 µM | [16] > 100 µM | [17] > 100 µM | [18] > 100 µM | [19] > 100 µM
> 100 µM: [12]

CC1=NN(C(=O)CC(=O)Nc2ccccc2)C(=O)C1/N=N/c1ccc(C(=O)O)cc1 (stereo not drawn)
inactive: [1] > 100 µM | [2] > 100 µM | [3] > 100 µM | [4] > 100 µM | [5] 50.6 µM | [6] > 100 µM | [7] > 100 µM | [8] 84.7 µM | [9] 62.7 µM | [10] > 100 µM | [11] > 100 µM | [13] > 100 µM | [14] > 100 µM | [15] 78.7 µM | [16] > 100 µM | [17] > 100 µM | [18] > 100 µM
> 100 µM: [12]

COc1ccc2o/c(=N/c3ccccc3)c(C(N)=O)cc2c1
inactive: [1] 6.84 µM | [2] > 100 µM | [4] > 100 µM | [5] > 100 µM | [6] > 57.8 µM | [7] > 25.5 µM | [8] > 75.3 µM | [9] > 100 µM | [10] > 100 µM | [11] > 100 µM | [13] > 100 µM | [14] > 100 µM | [15] 42.9 µM | [16] > 100 µM | [17] > 100 µM | [18] 19 µM | [19] 39.2 µM
> 100 µM: [12]

CCOC(=O)C(NC(=O)CC)(Nc1ccc(S(=O)(=O)Nc2nc(C)cc(C)n2)cc1)C(F)(F)F (stereo not drawn)
inactive: [1] > 100 µM | [2] > 100 µM | [3] > 100 µM | [4] > 100 µM | [5] > 100 µM | [6] > 100 µM | [7] > 100 µM | [8] > 100 µM | [9] > 100 µM | [10] > 100 µM | [11] > 100 µM | [13] > 100 µM | [14] > 100 µM | [15] > 100 µM | [16] > 100 µM | [17] > 100 µM | [18] > 100 µM | [19] > 100 µM
> 100 µM: [12]

CC1(C)C(=O)C2(OS(=O)(=O)C(F)(F)F)CCC1C2 (stereo not drawn)
inactive: [1] > 100 µM | [2] > 100 µM | [3] > 100 µM | [4] > 100 µM | [6] > 100 µM | [7] > 100 µM | [8] > 100 µM | [9] > 100 µM | [10] > 100 µM | [11] > 100 µM | [13] > 100 µM | [14] > 100 µM | [15] > 100 µM | [16] > 100 µM | [17] > 100 µM | [18] > 100 µM | [19] > 100 µM
> 100 µM: [12]
active: [5] 1 µM

O=C1CCC2(CC1CCSc1ccccc1)OCCO2 (stereo not drawn)
inactive: [1] > 100 µM | [3] > 100 µM | [4] > 100 µM | [5] > 100 µM | [6] > 100 µM | [7] > 100 µM | [8] > 100 µM | [9] > 100 µM | [10] > 100 µM | [11] > 100 µM | [13] 98.9 µM | [14] > 100 µM | [15] > 100 µM | [16] > 100 µM | [17] 95.1 µM | [18] > 100 µM | [19] > 100 µM
> 100 µM: [12]

CCNC(=S)N/N=C/c1cc(OC)ccc1O
inactive: [1] > 100 µM | [2] > 100 µM | [3] 99.1 µM | [4] > 100 µM | [5] 69.5 µM | [6] 67.1 µM | [7] 89.1 µM | [8] > 100 µM | [9] 24.3 µM | [10] 33.7 µM | [11] > 100 µM | [13] 99.3 µM | [14] > 100 µM | [15] > 100 µM | [16] > 100 µM | [17] > 100 µM | [18] 66.7 µM | [19] > 100 µM
47.6 µM: [12]

Nc1ccc(-c2nc3cc(F)ccc3s2)cc1Cl
0.134 µM: [12]
inactive: [1] > 100 µM | [2] 23.3 µM | [3] 39.7 µM | [6] 25.8 µM | [7] 1.17 µM | [8] 20.2 µM | [10] 17.1 µM | [11] > 85.1 µM | [13] > 77.4 µM | [14] 41.1 µM | [15] 27.1 µM | [16] > 85.5 µM | [17] 3.64 µM | [18] 1.57 µM | [19] 19.1 µM
active: [4] < 0.01 µM | [5] 0.0382 µM | [9] 0.0615 µM

CC(O)C1(O)C(O)CC(OC2c3cc4c(c(O)c3[C@@H]3C[C@@]2(C)OC32C=c3cc[nH]c3=N2)C(=O)c2cccc(O)c2C4=O)OC1C (stereo partly drawn)
inactive: [1] 1.81 µM | [3] 1.31 µM | [8] 1.19 µM | [9] 3.1 µM | [10] 2.38 µM | [11] 1.34 µM | [14] 1.6 µM | [15] 1.73 µM | [16] 1.7 µM | [19] 1.75 µM
2.03 µM: [12]
active: [2] 0.607 µM | [4] 1.11 µM | [5] 0.287 µM | [6] 1.04 µM | [7] 1.11 µM | [13] 0.555 µM | [17] 0.598 µM | [18] 0.759 µM

N/N=C(\c1nc2ccc([N+](=O)[O-])cc2nc1O)C(O)c1ccc(Cl)c(Cl)c1 (stereo not drawn)
> 100 µM: [12]
inactive: [1] > 100 µM | [2] > 100 µM | [3] > 100 µM | [4] > 100 µM | [5] 61.5 µM | [6] > 100 µM | [7] > 100 µM | [8] > 100 µM | [9] 67.3 µM | [10] > 100 µM | [11] > 100 µM | [13] 33.4 µM | [14] > 100 µM | [15] > 100 µM | [16] > 100 µM | [17] 47.4 µM | [18] 54.1 µM | [19] 88.1 µM

Cc1ccnc2[nH]c3ccccc3c(=O)c12
inactive: [1] 21 µM | [2] 21.3 µM | [3] 16.9 µM | [4] 19.9 µM | [5] 11.5 µM | [6] 41.2 µM | [7] 28.8 µM | [8] 17.9 µM | [9] 31.3 µM | [10] 29 µM | [11] 26.8 µM | [13] 19.5 µM | [14] 25.2 µM | [15] 16.3 µM | [16] 15.1 µM | [17] 15.1 µM | [18] 20.5 µM | [19] 43.5 µM
25.5 µM: [12]

CC(O)C(O)C(O)C(/C=N\Nc1ccccc1)=N/Nc1ccccc1 (stereo not drawn)
12.4 µM: [12]
inactive: [1] 12.6 µM | [2] 16 µM | [3] 10 µM | [4] 10.8 µM | [5] 17.3 µM | [6] 14.2 µM | [7] 12.1 µM | [8] 15.1 µM | [9] 6.21 µM | [11] 13.3 µM | [13] 4.58 µM | [14] 8.63 µM | [15] 11 µM | [16] 16.6 µM | [17] 12.6 µM | [18] 10.8 µM | [19] 15.6 µM

CCOC(=O)c1nc2cc(C(F)(F)F)ccc2nc1Oc1ccc(C#N)cc1
inactive: [1] > 100 µM | [2] > 100 µM | [3] > 100 µM | [4] 80 µM | [5] 60.7 µM | [6] > 100 µM | [7] > 100 µM | [8] > 100 µM | [9] 55.7 µM | [10] > 100 µM | [11] > 100 µM | [13] 71.8 µM | [14] > 100 µM | [15] > 100 µM | [16] > 100 µM | [17] 71.8 µM | [18] > 100 µM
> 100 µM: [12]

CCCCc1c2c(c(C)c3c1C(=O)OC3)Oc1ccccc1O2
0.708 µM: [12]
active: [1] 0.145 µM | [3] 0.535 µM | [4] 0.646 µM | [5] 0.186 µM | [8] 0.608 µM | [14] 0.541 µM | [15] 0.628 µM | [17] 0.316 µM
inactive: [2] 1.85 µM | [6] 1.5 µM | [9] 5.11 µM | [10] 3.56 µM | [11] 1.22 µM | [13] 2.25 µM | [16] > 63.2 µM | [18] 4.59 µM | [19] 1.57 µM

COC1(CC[C@@H](C)COC2OC(CO)C(O)C(O)C2O)O[C@H]2C[C@H]3[C@@H]4CC=C5C[C@@H](OC6OC(CO)C(OC7OC(C)C(O)C(O)C7O)C(O)C6OC6OC(C)C(O)C(O)C6O)CC[C@]5(C)[C@H]4CC[C@]3(C)[C@H]2[C@@H]1C (stereo partly drawn)
inactive: [1] 2.61 µM | [2] 5.85 µM | [4] 3.74 µM | [5] 25.1 µM | [6] 2.02 µM | [7] 22.1 µM | [8] 1.89 µM | [9] 6.08 µM | [10] 3.54 µM | [11] 2.55 µM | [13] 1.73 µM | [14] 4.39 µM | [15] 2.55 µM | [16] 2.97 µM | [17] 18.2 µM | [18] 11.4 µM | [19] 1.66 µM
1.98 µM: [12]

— ChEMBL document CHEMBL1201862, “PubChem BioAssay data set” (2004)
